Experiment: Retinoid solubility in oil
Assay type: physicochemical
Procedure: Retinoid solubility in oil is determined by the following procedure. A known weight of pure retinoid in excess of the expected solubility limit in the oil is added in an oil and methanol is added to the mixture to dissolve all retinoid crystals. Nitrogen sparging is used to ensure all methanol has evaporated from the oil. Retinoid is allowed to recrystallize overnight. The sample is filtered through a 0.45 micron filter. Known dilutions of the filtrate in isopropanol are measured by UV spectroscopy at an appropriate wavelength (325 nm for retinol) and the concentration of retinoid determined against calibration standards of retinoid in isopropanol.

CC1=C(/C=C/C(C)=C/C=C/C(C)=C/CO)C(C)(C)CCC1 [retinol]
SOLUBILITY, WT % (retinol crystals in C12-15 Alkyl benzoate): 85 WT %
SOLUBILITY, WT % (retinol crystals in Cetiol OE): 45 WT %
SOLUBILITY, WT % (retinol crystals in Cyclomethicone): 2.7 WT %
SOLUBILITY, WT % (retinol crystals in Dimethicone): 0.49 WT %
SOLUBILITY, WT % (retinol crystals in Isostearyl palmitate): 44 WT %
SOLUBILITY, WT % (retinol crystals in Mineral oil): 34.2 WT %
SOLUBILITY, WT % (retinol crystals in Triolein/Squalene (6:1)): 56.4 WT %
